In patent publication US20070191395A1 (priority 2004, published 2007):
≈ marks a conversion by molar mass, not a printed value.

Tests used:
Format in all cases: cell-based
[1] = system: Candida glabrata ATCC 48435; test: Antifungal activity, growth inhibition (alamar Blue), Candida glabrata; details: GI80 versus drug non-addition growth
Description: (§1) Measuring method of the antifungal activities of the compounds of the present invention carried out in accordance with Japanese Journal of Medical Mycology, 40, 243-246, 1999, Japanese Society for Medical Mycology Standardization Committee, (alamar Blue), and the or 80% growth inhibition (GI50 or GI80) concentration (μg/ml) for drug non-addition growth as the positive control was measured.

[2] = system: Candida albicans ATCC MYA-573; test: Antifungal activity, growth inhibition (alamar Blue), Candida albicans; details: GI50 versus drug non-addition growth
Description: as §1

[3] = system: Saccharomyces cerevisiae AY-14; test: Antifungal activity, growth inhibition (alamar Blue), Saccharomyces cerevisiae; details: GI80 versus drug non-addition growth
Description: as §1

[4] = system: Candida krusei ATCC 44507; test: Antifungal activity, growth inhibition (alamar Blue), Candida krusei; details: for GI50, 50% growth inhibition concentration, Candida krusei ATCC 44507: GI50 versus drug non-addition growth
Description: as §1

SMILES | GI80, 80% growth inhibition concentration, Candida glabrata ATCC 48435 [1] [µg/mL] | GI50, 50% growth inhibition concentration, Candida albicans ATCC MYA-573 [2] [µg/mL] | GI80, 80% growth inhibition concentration, Saccharomyces cerevisiae AY-14 [3] [µg/mL] | GI50, 50% growth inhibition concentration, Candida krusei ATCC 44507 [4] [µg/mL] | GI50 ([2]; read-out: GI50, 50% growth inhibition concentration, Candida albicans ATCC MYA-573) [µg/mL] | GI50 ([4]; Pichia kudriavzevii, ATCC44507, GI50 versus drug non-addition growth, read-out: GI50, 50% growth inhibition concentration, Candida krusei ATCC 44507) [µg/mL]
Cc1c(-c2ccccc2)c(N2CC[C@H](N(C)C)C2)n2cc(C(C)C)nc2c1C#N [Example 8] | 0.125 (≈ 0.323 µM) | 1 (≈ 2.58 µM) | 2 (≈ 5.16 µM) | >4 | – | –
Cc1c(-c2ccccc2)c(N2CC[C@H](N(C)C)C2)n2cc(C(C)(C)C)nc2c1C#N [Example 9, (3′S)-2-tert-Butyl-5-(3-dimethylaminopyrrolidin-1-yl)-7-methyl-6-phenylimidazo[1,2-a]pyridine-8-carbonitrile] | 0.25 (≈ 0.623 µM) | 0.25 (≈ 0.623 µM) | 0.125 (≈ 0.311 µM) | >4 | – | –
Cc1c(-c2ccccc2)c(N2CC[C@H](N(C)C)C2)n2nc(C(C)(C)C)nc2c1C#N [Example 25] | 0.125 (≈ 0.311 µM) | 4 (≈ 9.94 µM) | 0.063 (≈ 0.157 µM) | >4 | – | –
C=C(C)c1nc2c(C#N)c(C)c(-c3ccccc3)c(N3CC[C@H](N(C)C)C3)n2n1 [Example 33] | 0.008 (≈ 0.0207 µM) | 4 (≈ 10.3 µM) | 0.004 (≈ 0.0103 µM) | 4 (≈ 10.3 µM) | – | –
Cc1c(-c2ccccc2)c(N2CC[C@H](N(C)C)C2)n2nc(C(C)(C)COCc3ccccc3)nc2c1C#N [Example 39] | 0.25 (≈ 0.491 µM) | 0.5 (≈ 0.983 µM) | 0.063 (≈ 0.124 µM) | >4 | – | –
Cc1c(-c2ccccc2)c(N2CC[C@H](N(C)C)C2)n2nc(C(C)(C)C)cc2c1C#N [Example 62] | 2 (≈ 4.98 µM) | 4 (≈ 9.96 µM) | 2 (≈ 4.98 µM) | 4 (≈ 9.96 µM) | – | –
OC(Cn1cncn1)(Cn1cncn1)c1ccc(F)cc1F [Fluconazole, reference compound] | 4 (≈ 13.1 µM) | – | 4 (≈ 13.1 µM) | – | > 4 | > 4
